Experimental data published in the NIST ThermoML archive (doi:10.1021/acs.jced.6b00021).
Where “and” joins values, the source holds several entries; their conditions need not be identical. Equal entries are not always repeated.

Settings: Liquid; for self diffusion coefficient / viscosity / electrical conductivity: 101.33 kPa; for self diffusion coefficient: NMR spin-echo technique; for mass density: 100 kPa, Vibrating tube method; for electrical conductivity: Alternating current cell with electrodes

CC1COC(=O)O1 (centres undefined) [4-methyl-1,3-dioxolan-2-one]
Settings | mass density [kg/m3] | self diffusion coefficient
251.94 K | – | 1.29e-10 m2/s
251.99 K | – | 1.25e-10 m2/s and 1.24e-10 m2/s
262.92 K | – | 1.95e-10 m2/s and 1.9e-10 m2/s
262.93 K | – | 1.96e-10 m2/s and 1.93e-10 m2/s
273.09 K | – | 2.76e-10 m2/s and 2.73e-10 m2/s
273.15 K | 1226.25 | 2.73e-10 m2/s and 2.65e-10 m2/s
278.15 K | 1220.9 | –
278.27 K | – | 3.12e-10 m2/s
278.28 K | – | 3.19e-10 m2/s
278.51 K | – | 3.19e-10 m2/s
283.15 K | 1215.55 | –
283.25 K | – | 3.7e-10 m2/s and 3.63e-10 m2/s
283.27 K | – | 3.7e-10 m2/s and 3.68e-10 m2/s
288.26 K | – | 4.06e-10 m2/s and 4.1e-10 m2/s and 4.07e-10 m2/s
293.15 K | 1204.89 | –
293.21 K | – | 4.58e-10 m2/s
293.27 K | – | 4.62e-10 m2/s and 4.6e-10 m2/s
298.05 K | – | 5.14e-10 m2/s
298.14 K | – | 5.02e-10 m2/s and 5.01e-10 m2/s
298.15 K | 1199.58 | –
298.19 K | – | 5.24e-10 m2/s and 5.21e-10 m2/s
298.21 K | – | 5.23e-10 m2/s
298.26 K | – | 5.24e-10 m2/s
303.15 K | 1194.27 | –
303.18 K | – | 5.99e-10 m2/s and 5.89e-10 m2/s
303.19 K | – | 5.98e-10 m2/s and 5.86e-10 m2/s
308.21 K | – | 6.71e-10 m2/s and 6.58e-10 m2/s
308.27 K | – | 6.74e-10 m2/s and 6.54e-10 m2/s
308.78 K | – | 6.55e-10 m2/s
308.86 K | – | 6.59e-10 m2/s
313.15 K | 1183.67 | –
313.39 K | – | 7.44e-10 m2/s and 7.43e-10 m2/s
313.41 K | – | 7.32e-10 m2/s and 7.46e-10 m2/s
318.26 K | – | 8.17e-10 m2/s and 8.06e-10 m2/s
318.4 K | – | 8.14e-10 m2/s and 8.18e-10 m2/s
323.15 K | 1173.08 | –
323.2 K | – | 8.97e-10 m2/s and 9.06e-10 m2/s
323.25 K | – | 9.05e-10 m2/s and 8.92e-10 m2/s
323.65 K | – | 8.96e-10 m2/s and 8.76e-10 m2/s
323.67 K | – | 8.78e-10 m2/s and 8.71e-10 m2/s
333.08 K | – | 1.05e-09 m2/s
333.13 K | – | 1.04e-09 m2/s
333.15 K | 1162.5 | –
342.8 K | – | 1.22e-09 m2/s
342.86 K | – | 1.18e-09 m2/s
343.15 K | 1151.92 | –
352.52 K | – | 1.4e-09 m2/s
352.61 K | – | 1.42e-09 m2/s
352.68 K | – | 1.35e-09 m2/s
353.15 K | 1141.33 | –
363.15 K | 1130.73 | –

CCn1cc[n+](C)c1.N#C[B-](C#N)(C#N)C#N [1-ethyl-3-methylimidazolium tetracyanoborate]
Falling or rolling sphere viscometry
Settings | viscosity
263.15 K | 111.3 mPa·s
264.05 K | 108.4 mPa·s
265.65 K | 96.35 mPa·s and 96.52 mPa·s
268.15 K | 81 mPa·s [middle of 6 runs]
273.15 K | 58.91 mPa·s and 58.87 mPa·s and 60.07 mPa·s
278.15 K | 44.77 mPa·s
283.15 K | 34.55 mPa·s and 34.65 mPa·s and 34.73 mPa·s
288.15 K | 27.4 mPa·s and 27.3 mPa·s and 27.14 mPa·s
293.15 K | 22.35 mPa·s [middle of 6 runs]
296.15 K | 19.62 mPa·s [middle of 4 runs]
298.15 K | 18.51 mPa·s [middle of 4 runs]
300.15 K | 17.16 mPa·s and 16.93 mPa·s
303.15 K | 15.47 mPa·s and 15.64 mPa·s and 15.62 mPa·s
313.15 K | 11.25 mPa·s [middle of 5 runs]
323.15 K | 8.531 mPa·s and 8.521 mPa·s and 8.518 mPa·s
333.15 K | 6.68 mPa·s
338.15 K | 5.992 mPa·s and 6.022 mPa·s
343.15 K | 5.399 mPa·s and 5.4 mPa·s and 5.395 mPa·s
348.15 K | 4.921 mPa·s and 4.92 mPa·s
353.15 K | 4.458 mPa·s and 4.455 mPa·s and 4.454 mPa·s

Settings | mass density [kg/m3]
273.15 K | 1056.29
283.15 K | 1048.19
293.15 K | 1040.2
298.15 K | 1036.25
303.15 K | 1032.31
313.15 K | 1024.52
323.15 K | 1016.81
333.15 K | 1009.19
343.15 K | 1001.66
353.15 K | 994.2
363.15 K | 986.83

CCn1cc[n+](C)c1.CS(=O)(=O)[O-] [1-ethyl-3-methylimidazolium methanesulfonate]
Settings | electrical conductivity | mass density [kg/m3] | self diffusion coefficient [m2/s]
273.15 K | 0.0413 S/m | – | –
278.15 K | 0.0656 S/m | 1256.19 | –
280.65 K | – | 1254.4 | –
283.15 K | 0.0988 S/m | 1252.62 | –
285.65 K | – | 1250.84 | –
288.15 K | 0.142 S/m | 1249.07 | –
293.15 K | 0.197 S/m | 1245.55 | –
294 K | – | – | 7.63e-12
296.58 K | – | – | 9e-12
296.62 K | – | – | 9.07e-12
298.15 K | 0.265 S/m and 0.259 S/m | 1242.06 | –
298.98 K | – | – | 1.02e-11
299.01 K | – | – | 1.03e-11
300.65 K | 0.298 S/m | – | –
301.63 K | – | – | 1.23e-11
301.77 K | – | – | 1.24e-11
303.15 K | 0.346 S/m and 0.34 S/m | 1238.7 | –
304 K | – | – | 1.35e-11
304.01 K | – | – | 1.34e-11
305.65 K | 0.386 S/m | – | –
306.53 K | – | – | 1.52e-11
306.58 K | – | – | 1.55e-11
308.15 K | 0.435 S/m | – | –
310.65 K | 0.488 S/m | – | –
313.15 K | 0.553 S/m | 1231.94 | –
313.69 K | – | – | 2.21e-11
313.74 K | – | – | 2.21e-11
323.15 K | 0.821 S/m | 1225.21 | –
323.7 K | – | – | 3.42e-11
323.73 K | – | – | 3.43e-11
333.15 K | 1.15 S/m | 1218.52 | –
333.42 K | – | – | 5.06e-11
333.52 K | – | – | 5.07e-11
343.15 K | 1.55 S/m | 1211.87 | –
343.66 K | – | – | 7.13e-11
343.73 K | – | – | 7.12e-11
353.15 K | 1.99 S/m | 1205.26 | –
353.4 K | – | – | 9.71e-11
353.61 K | – | – | 9.7e-11
363.15 K | – | 1198.74 | –

viscosity
Settings | Concentric cylinders viscometry | Falling or rolling sphere viscometry
273.15 K | 1250.4 mPa·s | –
278.15 K | 749.3 mPa·s | –
283.15 K | 475.8 mPa·s | 472.2 mPa·s and 472.4 mPa·s
285.65 K | – | 379 mPa·s
288.15 K | 317.1 mPa·s | 314.8 mPa·s and 315.7 mPa·s
293.15 K | 219.7 mPa·s and 220.2 mPa·s and 220 mPa·s | 218.9 mPa·s and 219.3 mPa·s
296.15 K | – | 181.5 mPa·s and 179.5 mPa·s and 179.8 mPa·s
298.15 K | 158.2 mPa·s | 159.8 mPa·s and 160.6 mPa·s
300.15 K | – | 138.8 mPa·s [middle of 4 runs]
303.15 K | 115.6 mPa·s | 116.3 mPa·s
305.65 K | – | 101.8 mPa·s and 102 mPa·s
308.15 K | – | 89.34 mPa·s and 89.37 mPa·s
313.15 K | 66.71 mPa·s | 69.08 mPa·s and 69.13 mPa·s and 69.74 mPa·s
323.15 K | 43.42 mPa·s | 44.52 mPa·s and 44.54 mPa·s
333.15 K | 30.27 mPa·s | 30.49 mPa·s and 30.68 mPa·s
343.15 K | 22.11 mPa·s | 21.93 mPa·s and 21.98 mPa·s
353.15 K | 16.66 mPa·s | 16.42 mPa·s and 16.46 mPa·s
363.15 K | 12.94 mPa·s | 12.73 mPa·s and 12.81 mPa·s

CCn1cc[n+](C)c1.O=S(=O)([O-])C(F)(F)F [1-ethyl-3-methylimidazolium trifluoromethanesulfonate]
Falling or rolling sphere viscometry
Settings | viscosity
268.15 K | 172.2 mPa·s and 172.4 mPa·s
273.15 K | 130.7 mPa·s and 130.6 mPa·s
278.15 K | 102.3 mPa·s and 102 mPa·s
283.15 K | 80.26 mPa·s and 80.24 mPa·s
293.15 K | 52.45 mPa·s
298.15 K | 43.54 mPa·s [middle of 4 runs]
300.65 K | 39.67 mPa·s and 39.64 mPa·s
303.15 K | 36.27 mPa·s
305.65 K | 33.3 mPa·s and 33.29 mPa·s
308.15 K | 30.75 mPa·s and 30.7 mPa·s
313.15 K | 26.21 mPa·s and 26.2 mPa·s
323.15 K | 19.57 mPa·s and 19.48 mPa·s
333.15 K | 15.02 mPa·s
343.15 K | 11.78 mPa·s and 11.73 mPa·s
348.15 K | 10.51 mPa·s

Settings | electrical conductivity | mass density
273.15 K | 0.346 S/m | 1407.23 kg/m3
278.15 K | 0.433 S/m | 1402.99 kg/m3
283.15 K | 0.534 S/m | 1398.75 kg/m3
288.15 K | 0.647 S/m | –
293.15 K | 0.772 S/m | 1390.28 kg/m3 and 1390.27 kg/m3
298.15 K | 0.915 S/m and 0.91 S/m | 1386.04 kg/m3 and 1386.06 kg/m3
303.15 K | 1.06 S/m | 1381.85 kg/m3
313.15 K | 1.42 S/m | 1373.47 kg/m3 and 1373.45 kg/m3
323.15 K | 1.82 S/m | 1365.14 kg/m3
333.15 K | 2.25 S/m | 1356.86 kg/m3
343.15 K | 2.76 S/m | 1348.64 kg/m3
353.15 K | 3.29 S/m | 1340.46 kg/m3
363.15 K | – | 1332.32 kg/m3

C[N+](C)(C)CCO.O=S(=O)([N-]S(=O)(=O)C(F)(F)F)C(F)(F)F [choline bis(trifluoromethylsulfonyl)imide]
Settings | mass density [kg/m3]
313.15 K | 1513.41
315.65 K | 1511.12
318.15 K | 1508.82
323.15 K | 1504.27
328.15 K | 1499.7
333.15 K | 1495.16
338.15 K | 1490.66
343.15 K | 1486.16
348.15 K | 1481.69
353.15 K | 1477.22
358.15 K | 1472.78
363.15 K | 1468.35
